Measurements: US8729073B2, “5-methyl-1-(naphthalen-2-yl)-1H-pyrazole derivatives and their use in potentiating the effect of opioid analgesics” (Laboratorios Del Dr. Esteve, S.A., priority 2010, dated 2014)
Entries after “also recorded” stand apart in the source; their conditions may differ.

Assays:
[1] = tested on: capsaicin-induced neuropathic pain; test: Effect on capsaicin in development of mechanical allodynia (von Frey filaments); assay type: in vivo; details: mice, test compound given before 1 μg capsaicin (1% DMSO) injected into paw, FIG. 2
Description: Effect on Capsaicin in Development of Mechanical Allodynia
This model uses the von-Frey Filaments and is a model to test the effects or symptoms of neuropathic pain, allodynia etc.
Interest of the model: • The injection of 1 μg of capsaicin to experimental animals produces acute pain followed by hyperalgesia/allodynia • The mechanisms involved in capsaicin-induced acute pain and hyperalgesia are relatively well known (mainly activation of peripheral nociceptors and sensitization of spinal cord neurons, respectively)
After habituation mice were according to FIG. 1 first treated with the test-compound (or solvent in controls). Then 1 μg capsaicin (1% DMSO) is injected into their paw resulting in developing pain in the effected paw. The effected paw is then treated with a mechanical stimulus and the latency time before the paw is withdrawn is measured.

[2] = tested on: morphine analgesia; test: Tail-flick test in mice, modulation of morphine analgesia; assay type: in vivo; details: male CD1 mice; Example n^o 1 5-20 mg/kg i.p. coadministered with fixed dose of morphine 2 mg/kg s.c.; 30 min post-administration; FIG. 3

## Cc1cc(OCCN2CCOCC2=O)nn1-c1ccc2ccccc2c1 [Example n^o 1, 4-(2-(5-methyl-1-(naphthalen-2-yl)-1H-pyrazol-3-yloxy)ethyl)morpholin-3-one]
[1]
  analgesia in capsaicin-induced neuropathic pain (latency time before the paw is withdrawn, mechanical stimulus): dose dependency of the treatment with the compound of example 1 showing analgesia in capsaicin-induced neuropathic pain
[2]
  potentiation of morphine analgesia (% Analgesia, tail-flick latency): enhances the analgesic effect of a fixed dose of morphine; also recorded: dose-dependently increased the analgesic efficacy of morphine
